Assay results reported in article PMC8951016, “Computational Design and Biological Evaluation of Analogs of Lupin Peptide P5 Endowed with Dual PCSK9/HMG-CoAR Inhibiting Activity” (Pharmaceutics, 2022).

System: LDLR on HepG2 cell surface
Assay: ICW, LDLR localized in cellular membranes of HepG2 (peptide alone)
Assay type: cell-based, human
Details: 50 µM, vs control, average ± SD, four independent experiments in duplicate
Description: For the experiments, a total of 3 × 10^4 HepG2 cells/well were seeded in 96-well plates and treated with 4.0 μg/mL PCSK9-WT and 4.0 μg/mL PCSK9 + peptides P5 and/or P5 analogs (50 µM) and vehicle (H2O) for 2 h at 37 °C under 5% CO2 atmosphere. Thus, cells underwent to ICW assay following conditions already optimized. See Supplementary Materials for detailed information. […]
cLex Co., Nagano, Japan). The peptides (P5, P5-Best, P-H6A, and P5-S7A) were synthe-sized by the company GeneScript (Piscataway, NJ, USA) at >95% purity. The antibody against HMG-CoAR was bought from Abcam (Cambridge, UK). […]
HMG-CoAR Aactivity Assay. […] Subsequently, the samples were mixed and the absorbance at 340 nm read by the microplate reader Synergy H1 (Winooski, VT, USA) at time 0 and 10 min. The HMG-CoAR-dependent oxidation of NADPH and the inhibition properties of peptides were measured by absorbance reduction, which is directly proportional to enzyme activ- […]
In Vitro PCSK9-LDLR Binding Assay. […] The reaction was stopped with 2.0 M sulfuric acid and the absorbance at 450nm was measured using the Synergy H1 fluorescent plate reader […]

LILPKHSDAD [Peptide P5, natural peptide derived from a peptic lupin protein hydrolysate]
increase of LDLR level in cellular membranes of HepG2: 153.6 ± 16.4%
